What was measured:
[1] = target: Rev responsive element (RRE) RNA; test: Dissociation constant of compound with Rev-responsive element (RRE) IIB RNA was determined by the competition assay; type: nucleic-acid assay
[2] = system: Rev responsive element (RRE) RNA; test: Ratio of the dissociation constant between Rev37-50 and the PNA-peptide; type: nucleic-acid assay

Row | Structure (SMILES) | Kd [1] [nM] | Ratio [2]
1 | Cc1cn(CC(=O)N(CCNC(=O)CCC(=O)O)CC(=O)N[C@@H](C)C(=O)N[C@@H](CCCNC(=N)N)C(=O)N[C@@H](CCCNC(=N)N)C(=O)N[C@@H](CC(N)=O)C(=O)N[C@@H](CCCNC(=N)N)C(=O)N[C@@H](CCCNC(=N)N)C(=O)N[C@@H](CCCNC(=N)N)C(=O)N[C@@H](CCCNC(=N)N)C(=O)N[C@@H](Cc2c[nH]c3ccccc23)C(=O)N[C@@H](CCCNC(=N)N)C(=O)N[C@@H](CCC(=O)O)C(=O)N[C@@H](CCCNC(=N)N)C(=O)N[C@@H](CCC(N)=O)C(=O)N[C@H](CCCNC(=N)N)C(N)=O)c(=O)[nH]c1=O | 39 | 2.2
2 | C[C@H](NC(=O)CN(CCNC(=O)CN(CCNC(=O)CN(CCNC(=O)CN(CCNC(=O)CCC(=O)O)C(=O)Cn1cnc2c(=O)[nH]c(N)nc21)C(=O)Cn1ccc(N)nc1=O)C(=O)Cn1cnc2c(=O)[nH]c(N)nc21)C(=O)Cn1ccc(N)nc1=O)C(=O)N[C@@H](CCCNC(=N)N)C(=O)N[C@@H](CCCNC(=N)N)C(=O)N[C@@H](CC(N)=O)C(=O)N[C@@H](CCCNC(=N)N)C(=O)N[C@@H](CCCNC(=N)N)C(=O)N[C@@H](CCCNC(=N)N)C(=O)N[C@@H](CCCNC(=N)N)C(=O)N[C@@H](Cc1c[nH]c2ccccc12)C(=O)N[C@@H](CCCNC(=N)N)C(=O)N[C@@H](CCC(=O)O)C(=O)N[C@@H](CCCNC(=N)N)C(=O)N[C@@H](CCC(N)=O)C(=O)N[C@H](CCCNC(=N)N)C(N)=O | 5.7 | 15
3 | C[C@H](NC(=O)CN(CCNC(=O)CCC(=O)O)C(=O)Cn1cnc2c(=O)[nH]c(N)nc21)C(=O)N[C@@H](CCCNC(=N)N)C(=O)N[C@@H](CCCNC(=N)N)C(=O)N[C@@H](CC(N)=O)C(=O)N[C@@H](CCCNC(=N)N)C(=O)N[C@@H](CCCNC(=N)N)C(=O)N[C@@H](CCCNC(=N)N)C(=O)N[C@@H](CCCNC(=N)N)C(=O)N[C@@H](Cc1c[nH]c2ccccc12)C(=O)N[C@@H](CCCNC(=N)N)C(=O)N[C@@H](CCC(=O)O)C(=O)N[C@@H](CCCNC(=N)N)C(=O)N[C@@H](CCC(N)=O)C(=O)N[C@H](CCCNC(=N)N)C(N)=O | 30 | 2.9
4 | Cc1cn(CC(=O)N(CCNC(=O)CCC(=O)O)CC(=O)NCCN(CC(=O)NCCN(CC(=O)N[C@@H](C)C(=O)N[C@@H](CCCNC(=N)N)C(=O)N[C@@H](CCCNC(=N)N)C(=O)N[C@@H](CC(N)=O)C(=O)N[C@@H](CCCNC(=N)N)C(=O)N[C@@H](CCCNC(=N)N)C(=O)N[C@@H](CCCNC(=N)N)C(=O)N[C@@H](CCCNC(=N)N)C(=O)N[C@@H](Cc2c[nH]c3ccccc23)C(=O)N[C@@H](CCCNC(=N)N)C(=O)N[C@@H](CCC(=O)O)C(=O)N[C@@H](CCCNC(=N)N)C(=O)N[C@@H](CCC(N)=O)C(=O)N[C@H](CCCNC(=N)N)C(N)=O)C(=O)Cn2ccc(N)nc2=O)C(=O)Cn2cnc3c(=O)[nH]c(N)nc32)c(=O)[nH]c1=O | 17 | 5.1
5 | C[C@H](NC(=O)CN(CCNC(=O)CN(CCNC(=O)CN(CCNC(=O)CCC(=O)O)C(=O)Cn1cnc2c(N)ncnc21)C(=O)Cn1cnc2c(=O)[nH]c(N)nc21)C(=O)Cn1ccc(N)nc1=O)C(=O)N[C@@H](CCCNC(=N)N)C(=O)N[C@@H](CCCNC(=N)N)C(=O)N[C@@H](CC(N)=O)C(=O)N[C@@H](CCCNC(=N)N)C(=O)N[C@@H](CCCNC(=N)N)C(=O)N[C@@H](CCCNC(=N)N)C(=O)N[C@@H](CCCNC(=N)N)C(=O)N[C@@H](Cc1c[nH]c2ccccc12)C(=O)N[C@@H](CCCNC(=N)N)C(=O)N[C@@H](CCC(=O)O)C(=O)N[C@@H](CCCNC(=N)N)C(=O)N[C@@H](CCC(N)=O)C(=O)N[C@H](CCCNC(=N)N)C(N)=O | 15 | 5.7
6 | C[C@H](NC(=O)CCC(=O)O)C(=O)N[C@@H](CCCNC(=N)N)C(=O)N[C@@H](CCCNC(=N)N)C(=O)N[C@@H](CC(N)=O)C(=O)N[C@@H](CCCNC(=N)N)C(=O)N[C@@H](CCCNC(=N)N)C(=O)N[C@@H](CCCNC(=N)N)C(=O)N[C@@H](CCCNC(=N)N)C(=O)N[C@@H](Cc1c[nH]c2ccccc12)C(=O)N[C@@H](CCCNC(=N)N)C(=O)N[C@@H](CCC(=O)O)C(=O)N[C@@H](CCCNC(=N)N)C(=O)N[C@@H](CCC(N)=O)C(=O)N[C@H](CCCNC(=N)N)C(N)=O | 86 | 1
7 | CC(=O)N(CCNC(=O)NCC(=O)O)CC(=O)N[C@H](C)C(=O)N[C@@H](CCCNC(=N)N)C(=O)N[C@@H](CCCNC(=N)N)C(=O)N[C@@H](CC(N)=O)C(=O)N[C@@H](CCCNC(=N)N)C(=O)N[C@@H](CCCNC(=N)N)C(=O)N[C@@H](CCCNC(=N)N)C(=O)N[C@@H](CCCNC(=N)N)C(=O)N[C@@H](Cc1c[nH]c2ccccc12)C(=O)N[C@@H](CCCNC(=N)N)C(=O)N[C@@H](CCC(=O)O)C(=O)N[C@@H](CCCNC(=N)N)C(=O)N[C@@H](CCC(N)=O)C(=O)N[C@H](CCCNC(=N)N)C(N)=O | 44 | 2
8 | C[C@H](NC(=O)CN(CCNC(=O)CN(CCNC(=O)CN(CCNC(=O)CCC(=O)O)C(=O)Cn1cnc2c(=O)[nH]c(N)nc21)C(=O)Cn1cnc2c(=O)[nH]c(N)nc21)C(=O)Cn1ccc(N)nc1=O)C(=O)N[C@@H](CCCNC(=N)N)C(=O)N[C@@H](CCCNC(=N)N)C(=O)N[C@@H](CC(N)=O)C(=O)N[C@@H](CCCNC(=N)N)C(=O)N[C@@H](CCCNC(=N)N)C(=O)N[C@@H](CCCNC(=N)N)C(=O)N[C@@H](CCCNC(=N)N)C(=O)N[C@@H](Cc1c[nH]c2ccccc12)C(=O)N[C@@H](CCCNC(=N)N)C(=O)N[C@@H](CCC(=O)O)C(=O)N[C@@H](CCCNC(=N)N)C(=O)N[C@@H](CCC(N)=O)C(=O)N[C@H](CCCNC(=N)N)C(N)=O | 8.7 | 9.9
9 | C[C@H](NC(=O)CN(CCNC(=O)CCC(=O)O)C(=O)Cn1ccc(N)nc1=O)C(=O)N[C@@H](CCCNC(=N)N)C(=O)N[C@@H](CCCNC(=N)N)C(=O)N[C@@H](CC(N)=O)C(=O)N[C@@H](CCCNC(=N)N)C(=O)N[C@@H](CCCNC(=N)N)C(=O)N[C@@H](CCCNC(=N)N)C(=O)N[C@@H](CCCNC(=N)N)C(=O)N[C@@H](Cc1c[nH]c2ccccc12)C(=O)N[C@@H](CCCNC(=N)N)C(=O)N[C@@H](CCC(=O)O)C(=O)N[C@@H](CCCNC(=N)N)C(=O)N[C@@H](CCC(N)=O)C(=O)N[C@H](CCCNC(=N)N)C(N)=O | 31 | 2.8
10 | C[C@H](NC(=O)CN(CCNC(=O)CN(CCNC(=O)CN(CCNC(=O)CCC(=O)O)C(=O)Cn1ccc(N)nc1=O)C(=O)Cn1cnc2c(=O)[nH]c(N)nc21)C(=O)Cn1ccc(N)nc1=O)C(=O)N[C@@H](CCCNC(=N)N)C(=O)N[C@@H](CCCNC(=N)N)C(=O)N[C@@H](CC(N)=O)C(=O)N[C@@H](CCCNC(=N)N)C(=O)N[C@@H](CCCNC(=N)N)C(=O)N[C@@H](CCCNC(=N)N)C(=O)N[C@@H](CCCNC(=N)N)C(=O)N[C@@H](Cc1c[nH]c2ccccc12)C(=O)N[C@@H](CCCNC(=N)N)C(=O)N[C@@H](CCC(=O)O)C(=O)N[C@@H](CCCNC(=N)N)C(=O)N[C@@H](CCC(N)=O)C(=O)N[C@H](CCCNC(=N)N)C(N)=O | 9.6 | 9
11 | CC(=O)NCCN(CC(=O)NCCN(CC(=O)NCCN(CC(=O)NCCN(CC(=O)NCCN(CC(=O)N[C@@H](CCCCN)C(=O)CN)C(=O)Cn1ccc(N)nc1=O)C(=O)Cn1cnc2c(O)nc(N)nc21)C(=O)Cn1ccc(N)nc1=O)C(=O)Cn1cnc2c(O)nc(N)nc21)C(=O)Cn1cc(C)c(=O)[nH]c1=O | > 100000 | –
12 | Cc1cn(CC(=O)N(CCNC(=O)CCC(=O)O)CC(=O)NCCN(CC(=O)NCCN(CC(=O)NCCN(CC(=O)NCCN(CC(=O)N[C@@H](C)C(=O)N[C@@H](CCCNC(=N)N)C(=O)N[C@@H](CCCNC(=N)N)C(=O)N[C@@H](CC(N)=O)C(=O)N[C@@H](CCCNC(=N)N)C(=O)N[C@@H](CCCNC(=N)N)C(=O)N[C@@H](CCCNC(=N)N)C(=O)N[C@@H](CCCNC(=N)N)C(=O)N[C@@H](Cc2c[nH]c3ccccc23)C(=O)N[C@@H](CCCNC(=N)N)C(=O)N[C@@H](CCC(=O)O)C(=O)N[C@@H](CCCNC(=N)N)C(=O)N[C@@H](CCC(N)=O)C(=O)N[C@H](CCCNC(=N)N)C(N)=O)C(=O)Cn2ccc(N)nc2=O)C(=O)Cn2cnc3c(=O)[nH]c(N)nc32)C(=O)Cn2ccc(N)nc2=O)C(=O)Cn2cnc3c(=O)[nH]c(N)nc32)c(=O)[nH]c1=O | 5.4 | 16
13 | C[C@H](NC(=O)CN(CCNC(=O)CN(CCNC(=O)CN(CCNC(=O)CCC(=O)O)C(=O)Cn1ccc(N)nc1=O)C(=O)Cn1ccc(N)nc1=O)C(=O)Cn1ccc(N)nc1=O)C(=O)N[C@@H](CCCNC(=N)N)C(=O)N[C@@H](CCCNC(=N)N)C(=O)N[C@@H](CC(N)=O)C(=O)N[C@@H](CCCNC(=N)N)C(=O)N[C@@H](CCCNC(=N)N)C(=O)N[C@@H](CCCNC(=N)N)C(=O)N[C@@H](CCCNC(=N)N)C(=O)N[C@@H](Cc1c[nH]c2ccccc12)C(=O)N[C@@H](CCCNC(=N)N)C(=O)N[C@@H](CCC(=O)O)C(=O)N[C@@H](CCCNC(=N)N)C(=O)N[C@@H](CCC(N)=O)C(=O)N[C@H](CCCNC(=N)N)C(N)=O | 34 | 2.5
14 | Cc1cn(CC(=O)N(CCNC(=O)CCC(=O)O)CC(=O)NCCN(CC(=O)N[C@@H](C)C(=O)N[C@@H](CCCNC(=N)N)C(=O)N[C@@H](CCCNC(=N)N)C(=O)N[C@@H](CC(N)=O)C(=O)N[C@@H](CCCNC(=N)N)C(=O)N[C@@H](CCCNC(=N)N)C(=O)N[C@@H](CCCNC(=N)N)C(=O)N[C@@H](CCCNC(=N)N)C(=O)N[C@@H](Cc2c[nH]c3ccccc23)C(=O)N[C@@H](CCCNC(=N)N)C(=O)N[C@@H](CCC(=O)O)C(=O)N[C@@H](CCCNC(=N)N)C(=O)N[C@@H](CCC(N)=O)C(=O)N[C@H](CCCNC(=N)N)C(N)=O)C(=O)Cn2ccc(N)nc2=O)c(=O)[nH]c1=O | 27 | 3.2
15 | C[C@H](NC(=O)CN(CCNC(=O)CN(CCNC(=O)CCC(=O)O)C(=O)Cn1cnc2c(=O)[nH]c(N)nc21)C(=O)Cn1ccc(N)nc1=O)C(=O)N[C@@H](CCCNC(=N)N)C(=O)N[C@@H](CCCNC(=N)N)C(=O)N[C@@H](CC(N)=O)C(=O)N[C@@H](CCCNC(=N)N)C(=O)N[C@@H](CCCNC(=N)N)C(=O)N[C@@H](CCCNC(=N)N)C(=O)N[C@@H](CCCNC(=N)N)C(=O)N[C@@H](Cc1c[nH]c2ccccc12)C(=O)N[C@@H](CCCNC(=N)N)C(=O)N[C@@H](CCC(=O)O)C(=O)N[C@@H](CCCNC(=N)N)C(=O)N[C@@H](CCC(N)=O)C(=O)N[C@H](CCCNC(=N)N)C(N)=O | 16 | 5.4

From ChEMBL document CHEMBL1134253, “HIV Rev peptides conjugated with peptide nucleic acids and their efficient binding to RRE RNA” (Bioorg Med Chem Lett, 2001)
